Data published in patent US9113629B2, “4-amino-6-(4-substituted-phenyl)-picolinates and 6-amino-2-(4-substituted-phenyl)-pyrimidine-4-carboxylates and their use as herbicides” (DOW AGROSCIENCES LLC, priority 2013, dated 2015).
Where two headings read alike, the source gives them in different places.

Key:
[1] = system: Key Broadleaf Weed and Crop Species; assay: Post-emergent Test II herbicidal activity (Table 5); type: in vivo; conditions: post-emergence, 336 h, post-emergent, 14 days after application; for pest or weed control at 70 g/ha: 70 g ai/ha; for pest or weed control at 140 g/ha: 140 g ai/ha
In short: (§1)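 Injury was rated visually 14 d after treatment on a 0–100% scale against untreated controls. Test compounds, formulated with crop oil concentrate and surfactant and serially diluted down to 1/16× of the top rate, were applied by track sprayer at 187 L/ha onto first- to second-true-leaf seedlings.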

[2] = system: Key Grass and Sedge Weeds as well as Grass Crops; assay: Post-emergent Test II herbicidal activity (Table 6); type: in vivo; conditions: post-emergence, 336 h; for pest or weed control at 70 g/ha: application rate 70 g ai/ha; for pest or weed control at 140 g/ha: application rate 140 g ai/ha
In short: as §1

[3] = ABUTH: velvetleaf (Abutilon theophrasti), read-out: Visual Growth Reduction (%) 14 Days After Application ABUTH
[4] = AMARE: redroot pigweed (Amaranthus retroflexus), read-out: Visual Growth Reduction (%) 14 Days After Application AMARE
[5] = BRSNN: oilseed-rape, canola (Brassica napus), read-out: Visual Growth Reduction (%) 14 Days After Application BRSNN
[6] = CHEAL: lambsquarters (Chenopodium album), read-out: Visual Growth Reduction (%) 14 Days After Application CHEAL
[7] = EPHHL: wild poinsettia (Euphorbia heterophylla), read-out: Visual Growth Reduction (%) 14 Days After Application EPHHL
[8] = HELAN: sunflower (Helianthus annuus), read-out: Visual Growth Reduction (%) 14 Days After Application HELAN
[9] = VIOTR: wild pansy (Viola tricolor), read-out: Visual Growth Reduction (%) 14 Days After Application VIOTR
[10] = Triticum aestivum, TRZSS (wheat), read-out: Visual Growth Reduction (%) 14 Days After Application, TRZSS
[11] = CYPES: yellow nutsedge (Cyperus esculentus), read-out: Visual Growth Reduction (%) 14 Days After Application, CYPES
[12] = DIGSA: crabgrass (Digitaria sanguinalis), read-out: Visual Growth Reduction (%) 14 Days After Application, DIGSA
[13] = ECHCG: barnyardgrass (Echinochloa crus-galli), read-out: Visual Growth Reduction (%) 14 Days After Application, ECHCG
[14] = ORYSA: rice (Oryza sativa), read-out: Visual Growth Reduction (%) 14 Days After Application, ORYSA
[15] = SETFA: giant foxtail (Setaria faberi), read-out: Visual Growth Reduction (%) 14 Days After Application, SETFA
[16] = SORVU: grain sorghum (Sorghum vulgare), read-out: Visual Growth Reduction (%) 14 Days After Application, SORVU
[17] = ZEAMX: maize, corn (Zea mays), read-out: Visual Growth Reduction (%) 14 Days After Application, ZEAMX

Compound: C=Cc1c(C(=O)OC)nc(-c2ccc(C(F)(F)F)c(F)c2)c(F)c1N [Compound 12]
- melting point: 77 to 78 °C
- pest or weed control at 70 g/ha [1, 3]: 75 to 84%
- pest or weed control at 140 g/ha [1, 3]: 85 to 94%
- pest or weed control at 70 g/ha [1, 4]: 0 to 29%
- pest or weed control at 140 g/ha [1, 4]: 45 to 59%
- pest or weed control at 70 g/ha [1, 5]: 0 to 29%
- pest or weed control at 140 g/ha [1, 5]: 0 to 29%
- pest or weed control at 70 g/ha [1, 6]: 0 to 29%
- pest or weed control at 140 g/ha [1, 6]: 0 to 29%
- pest or weed control at 70 g/ha [1, 7]: 45 to 59%
- pest or weed control at 140 g/ha [1, 7]: 95 to 100%
- pest or weed control at 70 g/ha [1, 8]: 0 to 29%
- pest or weed control at 140 g/ha [1, 8]: 0 to 29%
- pest or weed control at 70 g/ha [1, 9]: 0 to 29%
- pest or weed control at 140 g/ha [1, 9]: 0 to 29%
- pest or weed control at 70 g/ha [2, 10]: 0 to 29%
- pest or weed control at 140 g/ha [2, 10]: 0 to 29%
- pest or weed control at 70 g/ha [2, 11]: 30 to 44%
- pest or weed control at 140 g/ha [2, 11]: 45 to 59%
- pest or weed control at 70 g/ha [2, 12]: 0 to 29%
- pest or weed control at 140 g/ha [2, 12]: 0 to 29%
- pest or weed control at 70 g/ha [2, 13]: 0 to 29%
- pest or weed control at 140 g/ha [2, 13]: 0 to 29%
- pest or weed control at 70 g/ha [2, 14]: 0 to 29%
- pest or weed control at 140 g/ha [2, 14]: 0 to 29%
- pest or weed control at 70 g/ha [2, 15]: 0 to 29%
- pest or weed control at 140 g/ha [2, 15]: 0 to 29%
- pest or weed control at 70 g/ha [2, 16]: 0 to 29%
- pest or weed control at 140 g/ha [2, 16]: 0 to 29%
- pest or weed control at 70 g/ha [2, 17]: 0 to 29%
- pest or weed control at 140 g/ha [2, 17]: 0 to 29%
